# In US20240150396A1 (The Texas A&M University System, priority 2021, published 2024):
# Where “and” joins values, the source holds several entries; their conditions need not be identical. Identical values can stand only once. Like-named read-outs stand apart in the source and are kept apart here. Residues, ends and D or L forms follow the SMILES beside them. *: point of attachment. Cbz = O=C(OCc1ccccc1)*
# What was measured:
# [1] = system: T. cruzi epimastigotes (strain Y); assay: Growth of axenic cultures of T. cruzi epimastigotes; details: for EC50: Trypanosoma cruzi, read-out: T. cruzi axenic culture EC50, epimastigotes; for T. cruzi axenic culture EC50: epimastigotes
# Experimental: Selected cruzain inhibitors in axenic cell cultures of Trypanosoma brucei brucei (procyclic trypomastigotes; ATCC PRA-381) and Trypanosoma cruzi (epimastigote forms; strain Y, ATCC 50832GFP) were tested. T. b. brucei is grown in SDM-79 medium, and T. cruzi is grown in ATCC medium (1029 LIT medium). Both media included fetal calf serum (10%) and penicillin/streptomycin (50 U/mL). […] T. brucei and T. cruzi (5 mL in flask cultures) at 26° C. were seeded at ˜3×10^6 cells, and diluted daily maintaining a mid-log growth phase for up to 100 hrs. Cell counts were scored using a Z2 Coulter Counter. After each cell dilution, fresh compound or an equal volume of DMSO (control samples), was supplemented into the cultures. […] Cruzain inhibitors where the highest concentration reflects the upper limit of solubilities of the inhibitors in 1% (v/v) DMSO solutions were evaluated. These inhibitors are likely to bind to proteins in fetal calf serum, and for these reasons, fresh inhibitors were added each time cells were re-fed.
# Selected cruzain inhibitors were evaluated in axenic cell cultures of T. b. brucei and T. cruzi. Procyclic trypomastigotes of T. b. brucei (ATCC PRA-381) were grown in the SDM-79 medium at 26° C., and bloodstream forms (ATCC PRA-383) were grown at 37° C. in the HMI-9 medium at 5% C02. T. cruzi (epimastigote forms, strain Y, ATCC 50832GFP) was grown in the ATCC medium (1029 LIT medium). Both forms of T. b. brucei and T. cruzi were grown in media containing 10% fetal bovine serum (FBS) and penicillin/streptomycin (50 U mL^−1). […] Control samples contained equal amounts of DMSO. T. b. brucei and T. cruzi (5 mL in flask cultures) were seeded at ˜3×10^6 cells and diluted daily, maintaining a mid-log growth phase for up to 120 h. […] After each cell dilution, fresh compound or an equal volume of DMSO (control samples) was supplemented into the cultures, while maintaining a constant concentration of each inhibitor. Cell counts were scored using a Z2 Coulter Counter.
# [2] = system: T. b. brucei bloodstream forms; assay: Growth of axenic cultures of T. b. brucei bloodstream forms (BSFs)
# cruzain = cruzain (Trypanosoma cruzi, UniProt P25779); assay: biochemical; details: for Ki: pH 7.5
# Experimental: All enzyme assays were performed at 25° C. Initial rates of the peptidolytic reaction catalyzed by cruzain were measured by monitoring the fluorescence generated by cleavage of the dipeptide-AMC bond. Assays were conducted in 96-well plates (Greiner; flat-bottom, clear black plates) in a total volume of 250 μL, containing either 50 mM MES (pH 7.5), 50 mM TAPSO, 100 mM DEA, 1 mM CHAPS, 1 mM Na2EDTA, 5 mM DTT, and 10% DMSO (v/v) or 50 mM sodium acetate (pH 5.5), 50 mM MES, 100 mM TEA, 1 mM CHAPS, 1 mM Na2EDTA, 5 mM DTT, and 10% DMSO (v/v). Substrates were dissolved in 100% DMSO and were then diluted 10-fold such that when added to reaction mixtures, final DMSO concentration was 10% (v/v). […] Fluorescence was measured on either a SpectraMax M5 (Molecular Devices) or a Synergy HTX (BioTek, Winooski, VT) microplate reader (λex=360 nm, λem=460 nm). Initial rates were determined from continuous kinetic time courses and calculated from the earliest time points, typically at less than 10 min.
# (2) Enzyme and compound were preincubated over extended periods of time, and then aliquots were removed and diluted 50-fold to 100-fold into reaction mixtures containing 10 μM Cbz-Phe-Arg-AMC, followed by the assessment of the resulting time courses.
# Data for time-dependent inhibition were fitted by several methods.
# Values of kobs versus [inhibitor] were then replotted and fitted to eq 4 for which k3 and k4 represent the respective rates of formation and dissolution of the EI* complex as depicted in FIG. 9.
# In addition, time-course data were fitted globally by two methods. First, expressions for vs, vi, and kobs were substituted into eq 3 to generate eq 6, which was used to fit time-course data at all concentrations of inhibitors simultaneously. Second, time-course data were fitted using KinTek Explorer as either a single-binding step model with the two kinetic parameters k3/Ki and k4 or a two-step binding mechanism as shown in FIG. 9 from which rate constants k1-k4 are determined (Supporting Information).
# Enzyme Assays. The preparation of cruzain and 3CL^pro were described in previous publications.^8, 34 The evaluation of inhibitors was modified from our lab protocol and described briefly as follows.^35 All enzyme assays were conducted in 96-well, clear bottom, black plates at 25° C., and fluorescence emanating from product formation was measured using either a SpectraMax M5 (Molecular Devices) or a Synergy HTX (Biotek) microplate reader, with excitation at λex=360 nm and emission at λem=460 nm. […] Reactions were started with addition of enzyme (typically, to a final concentration of 0.2 nM for cruzain or 40 nM for 3CL^pro), and the time courses were recorded for 0.5-1 h.
# Kinetic Data Analysis. All time-course data were fitted to eq. 1, wherein P is the fluorescence generated by formation of AMC or liberated ACC, C is the background constant, vi and vs are respectively initial-state and steady-state reaction rates, t is time, and kobs is the observed rate of conversion of the initial inhibited rate to the final inhibited rate.^46
# Overall inhibition constants (Ki* values) were obtained by fitting vs/v0 to eq. 4, wherein vs and v0 are steady-state reaction rates in the presence and absence of inhibitor respectively, [S] and [I] represent the fixed concentration of substrate and variable inhibitor, Km is the Michaelis constant of the substrate.
# [3] = Host cell cytotoxicity in the T. cruzi infection model; format: cell-based, mouse; details: mouse; host cardiomyoblasts; read-out: C2C12 Cytotoxicity CC50
# Experimental: (§1) The plates were incubated at 37° C. for 48 h, and the wells were fixed with 2% paraformaldehyde in PBS and stained with 5 μg mL-1 4,6-diamidino-2-phenylindole. After at least 30 min of incubation at room temperature in the dark, the plates were read in an automated microscope, ImageXpress Micro XL (Molecular Devices), and the images were analyzed by custom-built software to quantify and assess viability of the parasites, as well as the host cells independently. The compilation of data was used to calculate the antiparasitic activity (EC50) and host cytotoxicity (CC50).
# T. cruzi infection was evaluated in C2C12 murine cardiomyoblast cells. […] The wells were fixed with 2% PFA in PBS, and stained by 5 μg/ml of DAPI. After >30 min of incubation in a dark environment, the plates were read on an ImageXpress MicroXL microscope (Molecular Devices). The images were analyzed to quantify parasites as well host cells.
# [4] = system: T. cruzi (Ca-I/72) in C2C12 murine cardiomyoblasts; assay: T. cruzi-infected murine cardiomyoblasts (C2C12); format: cell-based, Trypanosoma cruzi; details: read-out: EC50 T. cruzi-infected cardiomyoblasts
# Experimental: as §1, with “For the evaluation of the antitrypanocidal activity of cruzain inhibitors, we infected a C2C12 mouse cardiomyoblast cell line (ATCC CRL-1772) with T. cruzi strain Ca-I/72 (a gift from James Dvorak, National Institutes of Health) in […] plates. […] The plates” for “The plates”
# T. cruzi infection was evaluated in C2C12 murine cardiomyoblast cells. 384-microwell plates containing C2C12 murine cardiomyoblast cells were infected with 10^3 and 10^4 cells of T. cruzi (Ca-I/72), to which was added 3-fold serially-dilutions of inhibitor with maximal concentrations of 10 μM, followed by incubation at 37° C. for 2 days. The wells were fixed with 2% PFA in PBS, and stained by 5 μg/ml of DAPI. After >30 min of incubation in a dark environment, the plates were read on an ImageXpress MicroXL microscope (Molecular Devices). The images were analyzed to quantify parasites as well host cells.
# [5] = Thiolation of inhibitors with glutathione, LCMS; format: physicochemical; details: 5 mM glutathione, 0.5 mM compound, Tris pH 8.0, 10% DMSO
# Experimental: Samples were analyzed by HPLC-MS (as described above) by injecting 0.01 mL aliquots onto a Luna […] C18(2) 100 Å, 4.6 mm, 50 mm column (Phenomenex) using the HPLC method described in the chemistry section at 0-6 h time points. […] Integration of the chromatographic peaks of the inhibitors and their GSH adducts at each time point was used to determine the rate of GSH adduct formation.
# [6] = system: T. b. brucei procyclic forms; assay: Growth of axenic cultures of T. b. brucei procyclic forms (PCFs); format: cell-based, Trypanosoma brucei brucei; details: for EC50: axenic culture, read-out: EC50 T. b. brucei PCF
# human dermal fibroblasts = assay: Human cell toxicity, resazurin viability; format: cell-based; details: human dermal fibroblasts; read-out: Human Cell Cytotoxicity CC50
# Experimental: Primary human dermal fibroblast (HDF) cells were used to evaluate human cell toxicity of cruzain inhibitors. HDF cells were plated in a 384-well plate at 2400 cells per well (62,000 cells mL^−1). Inhibitors in 100% DMSO were added in duplicate to final concentrations of 0.001-0.1 mM and 1% DMSO (v/v) with 1% DMSO as a control sample, and cells were cultured at 37° C. for 48 h, followed by the addition of resazurin. Cell viability was then assessed by reading of fluorescence (excitation/emission: 544 nm/590 nm) after an additional 24 h of incubation.
# SARS-CoV-2 3CL protease = SARS-CoV-2 3CL protease (Severe acute respiratory syndrome coronavirus 2 (2019-nCoV) (SARS-CoV-2), UniProt P0DTD1); assay: biochemical; format: biochemical; details: pH 7.5
# [7] = system: SARS-CoV-2 in Vero E6 cells; assay: Anti-CoV-2 activity in Vero E6 cells; format: cell-based
# human cathepsin L = human cathepsin L (Homo sapiens (Human), UniProt P07711); assay: Human cathepsin L inhibition, Z-FR-AMC assay; format: biochemical; details: pH 5.5, 25° C.; read-out: Ki* hCatL
# Experimental: Recombinant human cathepsins B and L were purchased from Millipore Sigma and used without further treatment. The solid proteins were dissolved into a solution of 50 mM sodium acetate (pH 5.5), 1 mM EDTA, 1 mM CHAPS, 10% (v/v) DMSO, and 5 mM DTT to final concentrations of […] in 20-mL aliquots, and stored at −80° C. until needed. These samples were then diluted into the same buffer to concentrations of −100 nM, and these dilutions were stored at 4° C. and used daily until depletion.
# For assays of cathepsin L and B, inhibitors were evaluated in 0.25-mL reaction mixtures containing a buffer of sodium acetate (pH 5.5), 1 mM CHAPS, 1 mM Na2EDTA, and 5 mM DTT at 25° C. The fluorogenic substrate Cbz-Phe-Arg-7-amino-4-methyl-coumarin (Z-FR-AMC) was dissolved in 100% DMSO, as were all inhibitors, and aliquots of both substrates and inhibitors were added to reaction mixtures to final concentrations of DMSO of 10% (v/v). […] Formation of the fluorescent product AMC was monitored over 30-60-minute time courses for reaction mixtures in 96-well black microplates (Corning Costar®). Rates of peptidolysis of the dipeptide-AMC substrate(s) were measured on either a SpectraMax M5 (Molecular Devices) or a Synergy HTX (Biotek, Wisnooki, VT) microplate reader with λex=360 nm, λem=460 nm in ≥8-sec intervals. Control samples excluded substrate. The measured relative fluorescence units (RFUs) of generated AMC were converted to reaction rates of μM/s by use of a standard curve of known AMC concentrations obtained for both plate readers.
# [8] = apparent tight-binding inhibition constant, 25° C., read-out: Ki*
# [9] = Trypanosoma cruzi, C2C12, C2C12 murine cardiomyoblasts
# [10] = apparent initial inhibition constant, 25° C., read-out: Ki
# Chain of cruzain (P25779 123-467 limits assumed): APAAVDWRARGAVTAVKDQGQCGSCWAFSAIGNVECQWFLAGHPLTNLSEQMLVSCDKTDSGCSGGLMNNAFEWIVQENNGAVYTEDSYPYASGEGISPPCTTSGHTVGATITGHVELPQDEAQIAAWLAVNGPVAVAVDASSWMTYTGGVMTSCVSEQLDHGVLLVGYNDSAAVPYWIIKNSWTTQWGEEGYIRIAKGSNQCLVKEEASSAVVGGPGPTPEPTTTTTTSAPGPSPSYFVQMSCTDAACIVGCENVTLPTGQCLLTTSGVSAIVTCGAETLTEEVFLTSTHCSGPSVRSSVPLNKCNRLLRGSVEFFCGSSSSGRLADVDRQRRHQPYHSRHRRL
# Chain of human cathepsin L (P07711 114-333): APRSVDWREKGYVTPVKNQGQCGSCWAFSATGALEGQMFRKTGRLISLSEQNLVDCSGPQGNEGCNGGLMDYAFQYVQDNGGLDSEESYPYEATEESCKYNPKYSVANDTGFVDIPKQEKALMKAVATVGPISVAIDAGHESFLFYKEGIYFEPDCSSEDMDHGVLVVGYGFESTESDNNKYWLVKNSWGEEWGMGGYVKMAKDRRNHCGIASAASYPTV
smiles,measurement,setting,value
"CN1CCN(C(=O)N[C@@H](Cc2ccccc2)C(=O)N[C@H](/C=C/c2ncccn2)CCc2ccccc2)CC1 [Compound 9, 4-Methyl-N—((S)-1-oxo-3-phenyl-1-(((S,E)-5-phenyl-1-(pyrimidin-2-yl)pent-1-en-3-yl)amino)propan-2-yl)piperazine-1-carboxamide]",EC50,[1],20 µM
same,T. cruzi axenic culture EC50,[1],poorly effective
same,EC50,"[2]; Trypanosoma brucei, read-out: EC50 T. b. brucei BSF, axenic culture",> 20 µM
same,Ki,cruzain; [8],2.2 ± 0.1 µM
same,CC50 at 48 h,[3],> 10 µM
same,EC50,[4]; [9],5 to 8 µM
"C[C@@H](/C=C/c1ncccn1)NC(=O)[C@H](Cc1ccccc1)NC(=O)OCc1ccccc1 [Compound 10, Benzyl ((S)-1-Oxo-3-phenyl-1-(((S,E)-4-(pyrimidin-2-yl)but-3-en-2-yl)amino)propan-2-yl)carbamate]",Ki,cruzain; [10],58 µM
same,Ki,"cruzain; apparent tight-binding inhibition constant, 25° C.",0.28 µM
same,Ki,cruzain; [8],25 ± 1 µM
same,CC50 at 48 h,[3],> 10 µM
same,EC50,[4]; [9],5 to 8 µM
"O=C(N[C@@H](Cc1ccccc1)C(=O)N[C@H](/C=C/c1cc(C(F)(F)F)ccn1)CCc1ccccc1)OCc1ccccc1 [Compound 17, Benzyl ((S)-1-Oxo-3-phenyl-1-(((S,E)-5-phenyl-1-(4-(trifluoromethyl)pyridin-2-yl)pent-1-en-3-yl)amino)propan-2-yl)-carbamate]",T. cruzi axenic culture EC50,[1],poorly effective
same,Ki,cruzain; [8],0.57 ± 0.05 µM
same,"Rate of Thiolation, k",[5],Negligible
same,inhibition at 20 µM,"[6]; Trypanosoma brucei, at 20 μM, read-out: inhibition of cell growth",≤ 50%
"O=C(N[C@@H](Cc1ccccc1)C(=O)N[C@H](/C=C/c1ncco1)Cc1ccccc1)OCc1ccccc1 [Compound 24, Benzyl ((S)-1-(((S,E)-4-(Oxazol-2-yl)-1-phenylbut-3-en-2-yl)-amino)-1-oxo-3-phenylpropan-2-yl)carbamate]",EC50,[1],> 20 µM
same,T. cruzi axenic culture EC50,[1],poorly effective
same,Ki,cruzain; [10],10 ± 1 µM
same,Ki,cruzain; [8],0.71 ± 0.01 µM
same,CC50,human dermal fibroblasts,> 100 µM
same,EC50,[6]; Trypanosoma brucei,27 ± 5 µM
O=C[C@H](Cc1ccccc1)NC(=O)[C@H](Cc1ccccc1)NC(=O)OCc1ccccc1 [Compound 28] (Cbz-Phe-Phe-aldehyde),Ki* 3CLpro,SARS-CoV-2 3CL protease,not an inhibitor of 3CL protease
same,Ki,SARS-CoV-2 3CL protease; read-out: Ki* 3CLpro,> 10 µM
same,EC50,"[2]; read-out: EC50 T. b. brucei BSF, axenic culture",3 µM and 3.3 µM
same,k4,"cruzain; conversion of EI* back to EI, from kobs replot or recovery after preincubation and dilution",(7.6±0.6)×10^−4 s^−1
same,Ki,"cruzain; obtained >10 minutes following initiation of reaction by addition of enzyme, read-out: Ki* Cruzain",0.00044 µM
same,residence time τ,"cruzain; preincubation, dilution, recovery of cruzain activity",52 min
same,EC50,[7],0.5 µM
same,Ki,human cathepsin L,0.00031 µM
same,EC50,[6],8 µM
same,EC50,[4]; C2C12 murine cardiomyoblasts,0.5 µM and 0.25 µM
